According to EPA's CvTdb concentration-time database (doi:10.1093/toxsci/kfy020):

What was measured:
rat [1] = assay: concentration in plasma after dosing; settings: dosed: Chloridazon, 4.17 mg/kg, oral, male, Sprague-Dawley
rat [2] = assay: concentration in plasma after dosing
rat [3] = assay: concentration in plasma after dosing; settings: dosed: Chloridazon, 0.80 mg/kg, iv, male, Sprague-Dawley
rat [4] = assay: concentration in plasma after dosing; settings: dosed: Chloridazon, 4.17 mg/kg, oral, male, Sprague-Dawley; remark: listed apart in the source
rat [5] = assay: concentration in plasma after dosing; settings: dosed: Chloridazon, 0.80 mg/kg, iv, male, Sprague-Dawley; remark: listed apart in the source
rat [6] = assay: concentration in brain after dosing; settings: dosed: Imipramine, 10.0000000000 mg/kg, iv, male, Wistar
rat [7] = assay: concentration in plasma after dosing; settings: dosed: Pentadecafluorooctanoic acid, 1.0000000000 mg/kg, oral, male, Sprague-Dawley
rat [8] = assay: concentration in plasma after dosing; settings: dosed: Pentadecafluorooctanoic acid, 1.0000000000 mg/kg, oral, male, Sprague-Dawley; remark: listed apart in the source
rat [9] = assay: concentration in plasma after dosing; settings: dosed: Pentadecafluorooctanoic acid, 0.2000000000 mg/kg, iv, male, Sprague-Dawley
rat [10] = assay: concentration in plasma after dosing; settings: dosed: Pentadecafluorooctanoic acid, 0.2000000000 mg/kg, iv, male, Sprague-Dawley; remark: listed apart in the source
rat [11] = assay: concentration in plasma after dosing; settings: dosed: Pentadecafluorooctanoic acid, 0.2000000000 mg/kg, iv, male, Sprague-Dawley; remark: listed apart in the source
rat [12] = assay: concentration in plasma after dosing; settings: dosed: Pentadecafluorooctanoic acid, 1.0000000000 mg/kg, oral, male, Sprague-Dawley; remark: listed apart in the source

Nc1cnn(-c2ccccc2)c(=O)c1Cl [Chloridazon]
concentration in plasma [ng/mL]
Settings | rat [1] | rat [3] | rat [4] | rat [5]
0.167 h | – | 477 | – | 228
0.25 h | 402 | – | 476 | –
0.5 h | 466 | 349 | 636 | 352
1 h | 863 | 106 | 858 | 102
2 h | 337 | 11.4 | 586 | 23.6
4 h | 64.9 | 1.03 | 158 | 1.66
5 min | – | 404 | – | 371
8 h | 48.8 | 1.72 | 3.03 | 0.333
24 h | 0.604 | 0.115 | 0.913 | 0.0228
48 h | 0.0265 | – | 0.0563 | 0.0394
72 h | 0.0146 | 0.116 | 0.00435 | –

rat [2], dosed: Chloridazon, male, Sprague-Dawley
Settings | concentration in plasma [ng/mL]
0.167 h, 0.80 mg/kg, iv | 54.2
0.25 h, 4.17 mg/kg, oral | 382
0.5 h, 0.80 mg/kg, iv | 144
0.5 h, 4.17 mg/kg, oral | 616
1 h, 0.80 mg/kg, iv | 88
1 h, 4.17 mg/kg, oral | 863
2 h, 0.80 mg/kg, iv | 106
2 h, 4.17 mg/kg, oral | 371
4 h, 0.80 mg/kg, iv | 88.3
4 h, 4.17 mg/kg, oral | 202
5 min, 0.80 mg/kg, iv | 84.5
8 h, 0.80 mg/kg, iv | 0.556
8 h, 4.17 mg/kg, oral | 93.2
24 h, 0.80 mg/kg, iv | 0.0877
24 h, 4.17 mg/kg, oral | 0.329
48 h, 0.80 mg/kg, iv | 0.0282
48 h, 4.17 mg/kg, oral | 0.0714
72 h, 0.80 mg/kg, iv | 0.072

CN(C)CCCN1c2ccccc2CCc2ccccc21 [Imipramine]
concentration in plasma [ng/mL], rat [2], dosed: Imipramine, male
Settings | 0.1287 h | 0.25 h | 0.5 h | 1 h | 2 h | 4 h | 8 h | 16 h | 24 h | 208 s
10.0000000000 mg/kg, iv, Wistar | 1620 | – | 853 | 719 | 238 | 46.3 | – | – | – | 2340
50.0000000000 mg/kg, oral, Sprague-Dawley | – | 99.1 | 75.7 | 120 | 73.9 | 58.7 | 38.6 | 33.5 | 28.3 | –

rat [6]
Settings | concentration in brain [µg/g]
1 h | 8.5
2 h | 3.6
4 h | 1.61
5 min | 14.7
10 min | 15.1

O=C(O)C(F)(F)C(F)(F)C(F)(F)C(F)(F)C(F)(F)C(F)(F)C(F)(F)F [Pentadecafluorooctanoic acid]
concentration in plasma [ng/mL]
Settings | rat [7] | rat [8] | rat [9] | rat [10] | rat [11] | rat [12]
0.25 h | 363 | 762 | – | – | – | 248
0.5 h | 540 | 608 | 188 | 245 | 150 | 379
1 h | 669 | 897 | 189 | 226 | 144 | 665
2 h | 957 | 950 | 196 | 236 | 138 | 764
4 h | 1040 | 924 | 189 | 196 | 168 | 765
5 min | – | – | 257 | 310 | 208 | –
8 h | 1100 | 1210 | 171 | 207 | 148 | 955
10 min | – | – | 207 | 280 | 176 | –
12 h | 1100 | 1180 | 135 | 194 | 147 | 1030
24 h | 1040 | 1130 | 168 | 195 | 141 | 1010
48 h | 1510 | 916 | 148 | 161 | 115 | 857
72 h | 663 | 855 | 122 | 153 | 98 | 563

rat [2], dosed: Pentadecafluorooctanoic acid, male, Sprague-Dawley
Settings | concentration in plasma [ng/mL]
0.25 h, 1.0000000000 mg/kg, oral | 420
0.5 h, 0.2000000000 mg/kg, iv | 156
0.5 h, 1.0000000000 mg/kg, oral | 584
1 h, 0.2000000000 mg/kg, iv | 145
1 h, 1.0000000000 mg/kg, oral | 885
2 h, 0.2000000000 mg/kg, iv | 150
2 h, 1.0000000000 mg/kg, oral | 1170
4 h, 0.2000000000 mg/kg, iv | 141
4 h, 1.0000000000 mg/kg, oral | 1190
5 min, 0.2000000000 mg/kg, iv | 221
8 h, 0.2000000000 mg/kg, iv | 123
8 h, 1.0000000000 mg/kg, oral | 1140
10 min, 0.2000000000 mg/kg, iv | 188
12 h, 0.2000000000 mg/kg, iv | 142
12 h, 1.0000000000 mg/kg, oral | 1120
24 h, 0.2000000000 mg/kg, iv | 139
24 h, 1.0000000000 mg/kg, oral | 1270
48 h, 0.2000000000 mg/kg, iv | 59
48 h, 1.0000000000 mg/kg, oral | 911
72 h, 0.2000000000 mg/kg, iv | 100
72 h, 1.0000000000 mg/kg, oral | 655

CCCC(CCC)C(=O)O [Valproic acid]
concentration in plasma [ng/mL], rat [2], dosed: Valproic acid, iv, Wistar
Settings | 10.0000000000 mg/kg | 50.0000000000 mg/kg | 100.0000000000 mg/kg
0.017 h | 69900 | 290000 | 511000
0.05 h | 49300 | 256000 | 427000
0.083 h | 36300 | 228000 | 369000
0.167 h | 32000 | 199000 | 329000
0.25 h | 25700 | 168000 | 290000
0.5 h | 14700 | 120000 | 250000
0.75 h | 9080 | 72500 | 218000
1 h | 5100 | 42900 | 171000
2 h | 1200 | 5190 | 43700
3 h | 494 | 2040 | 4030
4 h | 298 | 905 | 1600

concentration in plasma [ng/mL], rat [2], dosed: Valproic acid, oral, female, Sprague-Dawley
Settings | 0.25 h | 0.5 h | 0.75 h | 1 h | 2 h | 4 h
200.0000000000 mg/kg | 269000 | 333000 | 246000 | 182000 | 95600 | 23000
600.0000000000 mg/kg | 558000 | 841000 | 755000 | 691000 | 643000 | 294000

CNCCCN1c2ccccc2CCc2ccccc21 [desmethylimipramine]
rat [2], dosed: Imipramine, 10.0000000000 mg/kg, iv, male, Wistar
Settings | concentration in plasma [ng/mL]
1 h | 290
2 h | 370
4 h | 300
5 min | 440
10 min | 570

rat [6]
Settings | concentration in brain [µg/g]
0.5 h | 8.62
1 h | 1.08
2 h | 0.86
4 h | 0.72
5 min | 1.44
6 h | 0.69
10 min | 1.8
